{
  "source": "patent US10517889B2",
  "about": "“Modulators of SMAD7 expression” (Ionis Pharmaceuticals, Inc., priority 2017, dated 2019)",
  "system": "human SMAD7 mRNA",
  "experiment": "Antisense inhibition of human SMAD7 mRNA expression in Hep3B cells by 3-10-3 cEt gapmers, 10,000 nM, electroporation (Example 2)",
  "format": "cell-based",
  "conditions": "approximately 24 hours",
  "in_short": "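qRT-PCR (RTS5062) of SMAD7 mRNA, normalised to RIBOGREEN total RNA, gave percent inhibition relative to untreated controls. Hep3B cells at 20,000 per well received 10,000 nM oligonucleotide by electroporation, with ~24 h treatment.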",
  "key": {"[1]": {"conditions": "SMAD7 mRNA, Hep3B cells, 10,000 nM antisense oligonucleotide, electroporation, primer probe set RTS5062, relative to untreated control cells"}, "[2]": {"conditions": "Hep3B cells, electroporation with 10,000 nM antisense oligonucleotide, SMAD7 mRNA by RT-PCR (RTS5062), relative to untreated control cells"}, "[3]": {"conditions": "Hep3B cells, electroporation with 10,000 nM antisense oligonucleotide, primer probe set RTS5062, relative to untreated control cells"}, "[4]": {"conditions": "Hep3B cells, electroporation with 10,000 nM antisense oligonucleotide, RTS5062, percent inhibition of SMAD7 mRNA relative to untreated control cells"}, "[5]": {"conditions": "Hep3B cells, electroporation, 10,000 nM antisense oligonucleotide, RTS5062, relative to untreated control cells"}, "[6]": {"conditions": "Hep3B cells, 10,000 nM antisense oligonucleotide, electroporation, RT-PCR primer probe set RTS5062, relative to untreated control cells"}, "[7]": {"conditions": "SMAD7 mRNA, Hep3B cells, electroporation with 10,000 nM antisense oligonucleotide, primer probe set RTS5062, relative to untreated control cells"}},
  "note": "Strand notation (5' to 3'): a small letter for the sugar, then the base; units joined by * are phosphorothioate-linked, units joined directly phosphodiester-linked; [ ] holds rarer units or linkages, { } end groups; capitals alone tell only the bases. k = constrained ethyl (cEt); [5mC] = 5-methylcytosine; d = 2'-deoxy (DNA)",
  "data": [
    {"substance": "829781 (antisense k[5mC]*k[5mC]*kG*dG*d[5mC]*d[5mC]*dA*d[5mC]*d[5mC]*dT*dG*dA*dA*k[5mC]*kA*k[5mC]) [compound 829781]", "values": [
      {"measurement": "% Inhibition", "setting": "[1]", "result": 31, "unit": "%"}
    ]},
    {"substance": "830212 (kG*k[5mC]*kA*dG*dG*dG*dT*dG*dG*dA*dG*dA*d[5mC]*k[5mC]*kG*kG; antisense) [compound 830212]", "values": [
      {"measurement": "% Inhibition", "setting": "[2]", "result": 43, "unit": "%"}
    ]},
    {"substance": "830197 (antisense kG*kT*kT*dA*dA*dT*dG*dG*d[5mC]*d[5mC]*d[5mC]*dA*dG*k[5mC]*k[5mC]*k[5mC]) [compound 830197]", "values": [
      {"measurement": "% Inhibition", "setting": "[2]", "result": 31, "unit": "%"}
    ]},
    {"substance": "799480 (antisense k[5mC]*kA*k[5mC]*dA*d[5mC]*dA*dG*dG*d[5mC]*dA*dA*d[5mC]*d[5mC]*kA*k[5mC]*kA) [compound 799480]", "values": [
      {"measurement": "% inhibition of SMAD7 mRNA expression", "setting": "[3]", "result": 45, "unit": "%"}
    ]},
    {"substance": "799730 (antisense kT*kA*kA*dA*dT*dT*dG*dA*dG*dA*dA*d[5mC]*dT*kG*kT*kG) [compound 799730]", "values": [
      {"measurement": "% Inhibition", "setting": "[4]", "result": 60, "unit": "%"}
    ]},
    {"substance": "799834 (antisense kG*kT*kG*dG*dT*dA*dT*dA*dG*d[5mC]*dA*dT*dG*k[5mC]*kA*kT) [compound 799834]", "values": [
      {"measurement": "% inhibition of SMAD7 mRNA expression", "setting": "[5]", "result": 0, "unit": "%"}
    ]},
    {"substance": "799997 (kA*kT*kG*dA*d[5mC]*d[5mC]*d[5mC]*dA*d[5mC]*dG*dG*dT*dT*kA*kA*kA; antisense) [compound 799997]", "values": [
      {"measurement": "% Inhibition", "setting": "[6]", "result": 14, "unit": "%"}
    ]},
    {"substance": "799976 (kT*k[5mC]*kA*dA*dA*dG*dG*dT*dT*dA*dA*d[5mC]*dA*kG*k[5mC]*kA; antisense) [compound 799976]", "values": [
      {"measurement": "% Inhibition", "setting": "[6]", "result": 34, "unit": "%"}
    ]},
    {"substance": "830004 (antisense kT*kA*kA*dA*dG*dG*d[5mC]*d[5mC]*d[5mC]*dA*dG*d[5mC]*d[5mC]*kA*kT*kG) [compound 830004]", "values": [
      {"measurement": "% Inhibition", "setting": "[7]", "result": 24, "unit": "%"}
    ]},
    {"substance": "829805 (kT*k[5mC]*kT*dA*dG*dT*dT*d[5mC]*dG*d[5mC]*dA*dG*dA*kG*kT*k[5mC]; antisense) [compound 829805]", "values": [
      {"measurement": "% Inhibition", "setting": "[7]", "result": 37, "unit": "%"}
    ]},
    {"substance": "829808 (kG*kG*kA*dG*dA*d[5mC]*dT*d[5mC]*dT*dA*dG*dT*dT*k[5mC]*kG*k[5mC]; antisense) [compound 829808]", "values": [
      {"measurement": "% Inhibition", "setting": "[7]", "result": 53, "unit": "%"}
    ]},
    {"substance": "799733 (antisense kG*kT*kT*dT*dA*dG*dG*dT*dA*dG*dA*dG*dT*kG*kG*k[5mC]) [compound 799733]", "values": [
      {"measurement": "% inhibition of SMAD7 mRNA expression", "setting": "[5]", "result": 27, "unit": "%"}
    ]},
    {"substance": "798967 (antisense kT*k[5mC]*kA*dT*dA*d[5mC]*d[5mC]*dT*dG*d[5mC]*d[5mC]*d[5mC]*d[5mC]*kT*kT*k[5mC]) [compound 798967]", "values": [
      {"measurement": "% inhibition of SMAD7 mRNA expression", "setting": "[3]", "result": 40, "unit": "%"}
    ]},
    {"substance": "829916 (antisense kG*kA*kA*dG*dA*dG*dT*dT*dA*dG*dG*dT*dG*kT*k[5mC]*kA) [compound 829916]", "values": [
      {"measurement": "% Inhibition", "setting": "[7]", "result": 33, "unit": "%"}
    ]},
    {"substance": "799826 (antisense kG*kA*kT*d[5mC]*dA*dT*dT*d[5mC]*d[5mC]*d[5mC]*dA*d[5mC]*dA*k[5mC]*k[5mC]*k[5mC]) [compound 799826]", "values": [
      {"measurement": "% Inhibition", "setting": "[4]", "result": 33, "unit": "%"}
    ]},
    {"substance": "830146 (antisense kT*kG*kG*dT*d[5mC]*dT*dT*d[5mC]*dA*d[5mC]*d[5mC]*dA*dG*kG*kG*kT) [compound 830146]", "values": [
      {"measurement": "% Inhibition", "setting": "[2]", "result": 62, "unit": "%"}
    ]},
    {"substance": "829879 (antisense kT*kG*kG*dA*dG*dT*d[5mC]*d[5mC]*dG*dG*dG*dT*dT*kG*kT*k[5mC]) [compound 829879]", "values": [
      {"measurement": "% Inhibition", "setting": "[7]", "result": 29, "unit": "%"}
    ]},
    {"substance": "830167 (antisense kT*kT*kT*dA*d[5mC]*dA*d[5mC]*dA*d[5mC]*d[5mC]*d[5mC]*d[5mC]*dA*kG*kG*kG) [compound 830167]", "values": [
      {"measurement": "% Inhibition", "setting": "[2]", "result": 39, "unit": "%"}
    ]},
    {"substance": "829792 (k[5mC]*kT*kT*d[5mC]*d[5mC]*d[5mC]*dG*dT*dA*dA*dG*dA*dT*kT*k[5mC]*kA; antisense) [compound 829792]", "values": [
      {"measurement": "% Inhibition", "setting": "[1]", "result": 39, "unit": "%"}
    ]},
    {"substance": "798665 (k[5mC]*kA*kG*dT*d[5mC]*dT*d[5mC]*d[5mC]*d[5mC]*dG*dG*dA*dG*kG*k[5mC]*k[5mC]; antisense) [compound 798665]", "values": [
      {"measurement": "% Inhibition", "setting": "[2]", "result": 7, "unit": "%"}
    ]},
    {"substance": "798866 (kG*kT*k[5mC]*d[5mC]*dT*dG*dG*dA*dG*dT*d[5mC]*d[5mC]*dG*kG*kG*kT; antisense) [compound 798866]", "values": [
      {"measurement": "% Inhibition", "setting": "[2]", "result": 20, "unit": "%"}
    ]},
    {"substance": "798832 (kA*kT*k[5mC]*dA*dT*dA*dG*dA*dA*dG*dA*dT*dA*kT*k[5mC]*k[5mC]; antisense) [compound 798832]", "values": [
      {"measurement": "% Inhibition", "setting": "[2]", "result": 41, "unit": "%"}
    ]},
    {"substance": "798993 (antisense k[5mC]*kA*k[5mC]*dA*d[5mC]*dT*d[5mC]*d[5mC]*dT*dG*dA*d[5mC]*dA*kA*kG*kT) [compound 798993]", "values": [
      {"measurement": "% Inhibition", "setting": "[3]", "result": 37, "unit": "%"}
    ]},
    {"substance": "799954 (antisense k[5mC]*kA*kG*dA*dA*dA*dA*dT*dG*d[5mC]*d[5mC]*d[5mC]*dA*k[5mC]*k[5mC]*kA) [compound 799954]", "values": [
      {"measurement": "% Inhibition", "setting": "[6]", "result": 42, "unit": "%"}
    ]},
    {"substance": "799246 (antisense kA*k[5mC]*kA*dG*dT*dA*dT*d[5mC]*dT*dG*dG*dG*d[5mC]*k[5mC]*kA*k[5mC]) [compound 799246]", "values": [
      {"measurement": "% inhibition of SMAD7 mRNA expression", "setting": "[3]", "result": 74, "unit": "%"}
    ]},
    {"substance": "799680 (antisense kG*kA*kG*dT*dT*d[5mC]*dT*dA*dG*dG*d[5mC]*d[5mC]*dG*kT*k[5mC]*kA) [compound 799680]", "values": [
      {"measurement": "% inhibition of SMAD7 mRNA expression", "setting": "[5]", "result": 33, "unit": "%"}
    ]},
    {"substance": "799014 (kA*k[5mC]*kA*dT*d[5mC]*d[5mC]*dA*dT*dA*dA*dG*dA*dG*kA*k[5mC]*kA; antisense) [compound 799014]", "values": [
      {"measurement": "% Inhibition", "setting": "[3]", "result": 29, "unit": "%"}
    ]},
    {"substance": "798872 (kT*kA*kG*dT*d[5mC]*dG*dA*dA*dA*dG*d[5mC]*d[5mC]*dT*kT*kG*kA; antisense) [compound 798872]", "values": [
      {"measurement": "% Inhibition", "setting": "[6]", "result": 2, "unit": "%"}
    ]},
    {"substance": "798862 (kT*k[5mC]*k[5mC]*dA*dG*dT*dG*dT*dG*dG*d[5mC]*dG*dG*kA*k[5mC]*kT; antisense) [compound 798862]", "values": [
      {"measurement": "% Inhibition", "setting": "[2]", "result": 20, "unit": "%"}
    ]},
    {"substance": "799248 (antisense kG*k[5mC]*k[5mC]*dA*d[5mC]*dG*dA*d[5mC]*dA*dG*dT*dA*dT*k[5mC]*kT*kG) [compound 799248]", "values": [
      {"measurement": "% inhibition of SMAD7 mRNA expression", "setting": "[3]", "result": 40, "unit": "%"}
    ]},
    {"substance": "799434 (antisense kT*kG*kA*dA*dA*d[5mC]*dA*d[5mC]*dG*dG*dG*dA*dA*kG*k[5mC]*kA) [compound 799434]", "values": [
      {"measurement": "% Inhibition", "setting": "[2]", "result": 37, "unit": "%"}
    ]},
    {"substance": "799105 (antisense k[5mC]*kT*kA*dA*dG*dT*d[5mC]*d[5mC]*dG*dG*dG*dA*dA*kA*kA*kA) [compound 799105]", "values": [
      {"measurement": "% inhibition of SMAD7 mRNA expression", "setting": "[3]", "result": 12, "unit": "%"}
    ]},
    {"substance": "798700 (antisense k[5mC]*k[5mC]*k[5mC]*d[5mC]*dG*d[5mC]*dA*dG*d[5mC]*dT*d[5mC]*dG*d[5mC]*k[5mC]*kT*k[5mC]) [compound 798700]", "values": [
      {"measurement": "% Inhibition", "setting": "[2]", "result": 52, "unit": "%"}
    ]},
    {"substance": "830112 (kG*k[5mC]*k[5mC]*d[5mC]*d[5mC]*dA*dT*dT*d[5mC]*dA*dT*dT*dA*kA*kG*k[5mC]; antisense) [compound 830112]", "values": [
      {"measurement": "% Inhibition", "setting": "[2]", "result": 23, "unit": "%"}
    ]},
    {"substance": "799700 (antisense k[5mC]*kA*kT*dG*dA*d[5mC]*dA*dG*d[5mC]*dA*dA*dA*dG*k[5mC]*kA*kA) [compound 799700]", "values": [
      {"measurement": "% inhibition of SMAD7 mRNA expression", "setting": "[5]", "result": 49, "unit": "%"}
    ]},
    {"substance": "799635 (kA*k[5mC]*kA*dG*dA*d[5mC]*dT*dG*d[5mC]*d[5mC]*dA*dA*dA*kT*k[5mC]*kA; antisense) [compound 799635]", "values": [
      {"measurement": "% inhibition of SMAD7 mRNA expression", "setting": "[5]", "result": 28, "unit": "%"}
    ]}
  ]
}
